In patent US20060122104A1, “Methods for in vitro expansion and transdifferentiation of human pancreatic acinar cells into insulin-producing cells” (priority 2002, published 2006):

Tested on: primary human pancreatic cells
Experiment: Attachment and growth of primary pancreatic cells on ECM-coated surfaces (cell counting, MTS metabolic activity assay)
Type: cell-based
Details: 10^5 cells/cm^2, grown 8 days; FIG. 4A
Description: The attachment of primary human pancreatic cells was evaluated by counting the number of attached cells vs. the number of cells initially seeded on a panel of ECM surfaces comprised of Collagen I (1 μg/cm^2), Fibronectin (3 μg/cm^2), Laminin (2 μg/cm^2), Vitronectin (1 μg/cm^2), Matrigel (1 μg/cm^2), Human ECM (1 μg/cm^2), or Poly-D -Lysine (3 μg/cm^2). In one condition, a mixture of Collagen IV, Laminin, and Fibronectin was utilized. […] Excess ECM solution was then removed and surfaces were rinsed twice in water. Just before seeding cells, the water was aspirated, then cells were seeded onto the ECM surface at a density of 1×10^5 cells/cm^2 in growth medium (PCM) composed of DMEM:HamsF12 mixture (1:1) with 4 mM glutamine, 1×ITS supplement (GIBCO 51500-056), 10% Fetal Calf Serum (Inactivated, Qualified, GIBC 26140-079), and 10 ng/ml Epidermal Growth Factor (EGF) (BD 4001). Cells were seeded onto tissue-culture polystyrene surface as a control. […] The metabolic activity of cells subjected to the various conditions was determined by an MTS assay. Viable cells were measured using the MTS assay (Promega CellTiter 96 Aqueous One Solution Cell Proliferation Assay), a colorimetric method for determining the number of viable cells in proliferation or cytotoxicity. […]

Substance	cell attachment and expansion on coated surface
Fibronectin	suitable surface for cell attachment and expansion
Laminin	suitable surface for cell attachment and expansion
